According to patent publication US8569495B2, “Anthelmintic agents and their use” (Intervet International B.V., priority 2007, dated 2013):
Read-outs that look alike come from different tables or passages of the source.

Assays:
[1] = tested on: Haemonchus contortus (L4), isolate resistant to benzimidazoles and ivermectin and anthelmintic-sensitive isolate; assay: In vitro resistance-breaking activity against Haemonchus contortus L4, resistant versus sensitive isolate (MEC); details: isolate resistant to benzimidazoles and ivermectin vs sensitive isolate
Method: Anthelmintic resistance-breaking effects of compounds of this invention were tested in vitro using larval stage 4 (“L4”) of the parasitic nematode species Haemonchus contortus (Barber's pole worm in ruminants). One isolate of Haemonchus contortus with a resistance to benzimidazoles and ivermectin was tested in comparison to the anthelmintic-sensitive isolate of Haemonchus contortus. When conducting these experiments, various concentrations of the compounds were incubated in 96-well microtiter plates. Parasites were then distributed at 20 larvae per well. The anthelmintic effects were classified by microscopic examination. The microscopic examination included assessing mortality, damage, motility, progression of development, and neutral red uptake by the larvae in comparison to a DMSO-control and standard anthelmintics. The anthelmintic effects were defined by the minimum effective concentration (“MEC”).

Haemonchus contortus [2] = assay: Efficacy against Haemonchus contortus in jirds; format: in vivo, jirds (Meriones unguiculatus); details: single treatment 10 days after infection, necropsy 3 days after treatment
Method: Anthelmintic effects of compounds of this invention were tested in vivo using Haemonchus contuortus in jirds (Meriones unguiculatus). The jirds were orally infected with approximately 750-3,000 third-stage larvae of Haemonchus contortus. Ten days after infection, the jirds in the treatment groups were treated once orally or subcutaneously at a dose of 2, 10, and/or 50 mg per kg bodyweight. Three days after treatment, the jirds were necropsied, and the larvae burden in the stomach was determined. The efficacy was defined as the reduction of the mean larvae count in the jirds of the treatment groups in comparison to the infected jirds in the untreated negative control group. All the compounds of this invention tested using this protocol reduced the Haemonchus contortus count in both the oral and subcutaneous experiments.

Haemonchus contortus [3] = assay: Efficacy against Haemonchus contortus in sheep; format: in vivo; details: single treatment 35 days after infection, necropsy 7 days after treatment
Method: Anthelmintic effects of compounds of this invention were tested in vivo using Haemonchus contortus in sheep. The sheep were orally infected with approximately 5,000 third-stage larvae of Haemonchus contortus. Thirty-five days after infection, the sheep in the treatment groups were treated once orally or subcutaneously at a dose of 2, 5, 10, and/or 50 mg per kg bodyweight. Seven days after treatment, the sheep were necropsied, and the worm burden in the abomasum was determined. The efficacy was defined as the reduction of the mean worm count in the infected sheep of the treatment groups in comparison to the infected sheep in the untreated negative control group.

Haemonchus contortus [4] = assay: Efficacy against Haemonchus contortus in cattle; format: in vivo; details: 10 mg/kg, oral, single treatment 32 days after infection, necropsy 7 days after treatment
Method: (§1) Anthelmintic effects of compounds of this invention were tested in vivo using Haemonchus contortus and Trichostrongylus colubriformis in cattle. The cattle were orally infected with approximately 10,000 third-stage larvae of Haemonchus contortus and approximately 30,000 third-stage larvae of Trichostrongylus colubriformis. Thirty-two days after infection, the cattle in the treatment group were treated once orally with the compound of Example 11 at a dose of 10 mg/kg bodyweight. Seven days after treatment, the cattle were necropsied, and the worm burden in the abomasum and the small intestine was determined. The efficacy was defined as the reduction of the mean worm count in the infected cattle of the treatment group in comparison to the infected cattle in the untreated negative control group.

[5] = tested on: Trichostrongylus colubriformis; assay: Efficacy against Trichostrongylus colubriformis in cattle; format: in vivo; details: 10 mg/kg, oral, single treatment 32 days after infection, necropsy 7 days after treatment
Method: as §1

[6] = tested on: Ascaridia galli (L3) and Oesophagostomum dentatum (L3 and L4); assay: In vitro anthelmintic activity against larval stages of Ascaridia galli and Oesophagostomum dentatum (MEC); details: Ascaridia galli, A. galli L3, O. dentatum L3 and L4, 20 larvae per well, microscopic examination
[7] = in vitro, read-out: minimum effective concentration (MEC) against two or more of the tested nematodes
[8] = in vitro, read-out: minimum effective concentration (MEC) against one or more of the tested nematodes

O=C(CO[C@H]1CC[C@H](Nc2ccc([N+](=O)[O-])c(C(F)(F)F)c2)CC1)N1CCN(c2ccc(C(F)(F)F)cc2)CC1 [Example 11, 2-[trans-4-(4-nitro-3-trifluoromethyl-phenylamino)-cyclohexyloxy]-1-[4-(4-trifluoromethyl-phenyl)-piperazin-1-yl]-ethanone]
activity against the resistant isolate compared with the sensitive isolate of Haemonchus contortus [1]: same activity | % Reduction in H. contortus count (Haemonchus contortus [2]; 2 mg/kg, oral): 84% | % Reduction in H. contortus count (Haemonchus contortus [2]; 2 mg/kg, subcutaneous): 69% | % Reduction in H. contortus count (Haemonchus contortus [2]; 50 mg/kg, oral): 98% | % Reduction in H. contortus count (Haemonchus contortus [2]; 50 mg/kg, subcutaneous): 99% | % Reduction in H. contortus count (Haemonchus contortus [3]; 2 mg/kg, oral): 0% | % Reduction in H. contortus count (Haemonchus contortus [3]; 5 mg/kg, oral): 95% | % Reduction in H. contortus count (Haemonchus contortus [3]; 10 mg/kg, oral): 100% | Efficacy against H. contortus (reduction of the mean worm count) (Haemonchus contortus [4]): 98% | Efficacy against T. colubriformis (reduction of the mean worm count) [5]: 99%

CN(CC1CCN(c2ccc(C(F)(F)F)cc2)CC1)C(=O)[C@H]1CC[C@H](Nc2ccc([N+](=O)[O-])c(C(F)(F)F)c2)CC1 [Example 57, trans-N-methyl-4-(4-nitro-3-(trifluoromethyl)phenylamino)-N-((1-(4-(trifluoromethyl)phenyl)piperidin-4-yl)methyl)cyclohexanecarboxamide]
activity against the resistant isolate compared with the sensitive isolate of Haemonchus contortus [1]: same activity | % Reduction in H. contortus count (Haemonchus contortus [3]; 10 mg/kg, oral): 83% | % Reduction in H. contortus count (Haemonchus contortus [3]; 10 mg/kg, subcutaneous): 0%

CN(c1ccc([N+](=O)[O-])c(C(F)(F)F)c1)[C@H]1CC[C@H](OCC(=O)N2CCN(c3ccc(C(F)(F)F)cc3)CC2)CC1 [Example 12, 2-{trans-4-[methyl(4-nitro-3-trifluoromethyl-phenyl)-amino]-cyclohexyloxy}-1-[4-(4-trifluoromethyl-phenyl)-piperazin-1-yl]-ethanone]
% Reduction in H. contortus count (Haemonchus contortus [3]; 10 mg/kg, oral): 53% | % Reduction in H. contortus count (Haemonchus contortus [3]; 10 mg/kg, subcutaneous): 0%

CN(c1ccc([N+](=O)[O-])c(C(F)(F)F)c1)C1CCC(OCC(=S)N2CCN(c3ccc(C(F)(F)F)cc3)CC2)CC1 (stereo not drawn) [Example 218]
minimal effective concentration ([6]; read-out: minimum effective concentration (MEC) against two or more of the tested nematodes, in vitro): < 1 µM

CSc1ccc(NC2CCN(C(=O)COC3CCC(Nc4ccc([N+](=O)[O-])c(C(F)(F)F)c4)CC3)CC2)cc1C(F)(F)F (stereo not drawn) [Example 188]
minimal effective concentration [6, 7]: < 1 µM

N#Cc1ccc(NC2CCC(OCC(=S)N3CCN(c4ccc(Cl)cc4)CC3)CC2)cc1C(F)(F)F (stereo not drawn) [Example 209]
minimal effective concentration [6, 8]: < 1 µM

O=C(COC1CCC(Nc2ccc([N+](=O)[O-])c(C(F)(F)F)c2)CC1)N1CCN(c2ccc(F)cc2F)CC1 (stereo not drawn) [Example 71]
minimal effective concentration [6, 7]: < 1 µM

CN(CC1CCN(c2ccc(Cl)cc2)CC1)C(=O)C1CCC(Nc2ccc([N+](=O)[O-])c(C(F)(F)F)c2)CC1 (stereo not drawn) [Example 136]
minimal effective concentration [6, 7]: < 1 µM

O=[N+]([O-])c1ccc(NC2CCC(CCC(=S)N3CCN(c4ccc(C(F)(F)F)cc4)CC3)CC2)cc1C(F)(F)F (stereo not drawn) [Example 213]
minimal effective concentration [6, 7]: < 1 µM

CCOc1ccc(N2CCC(CNC(=O)C3CCC(Nc4ccc([N+](=O)[O-])c(C(F)(F)F)c4)CC3)CC2)cc1 (stereo not drawn) [Example 125]
minimal effective concentration [6, 8]: < 1 µM

N#Cc1ccc(N[C@H]2CC[C@H](OCC(=O)N3CCN(c4ccc(OCc5ccccc5)cc4)CC3)CC2)cc1C(F)(F)F [Example 25, 4-(trans-4-{2-[4-(4-benzyloxy-phenyl)-piperazin-1-yl]-2-oxoethoxy}-cyclohexylamino)-2-trifluoromethyl-benzonitrile]
minimal effective concentration [6, 7]: < 1 µM

O=C(NCC1CCN(c2ccc(C(F)(F)F)cc2)CC1)C1CCC(Nc2ccc([N+](=O)[O-])c(C(F)(F)F)c2)CC1 (stereo not drawn) [Example 120]
minimal effective concentration [6, 8]: < 1 µM | minimal effective concentration [6, 7]: < 1 µM

CN(CC1CCN(c2ccc(C(C)(C)C)cc2)CC1)C(=O)C1CCC(Nc2ccc([N+](=O)[O-])c(C(F)(F)F)c2)CC1 (stereo not drawn) [Example 132]
minimal effective concentration [6, 8]: < 1 µM | minimal effective concentration [6, 7]: < 1 µM
